Test results reported in patent US20210269483A1, “PEPTIDE COMPOUNDS” (ULTUPHARMA AB, priority 2018, published 2021).

Columns and labels:
A. baumannii = type: cell-based, Acinetobacter baumannii; settings: method A; only lower limit of concentration range shown ("16" means "16-32")
From the text: (§1) 2015. M7-A10. Methods for dilution antimicrobial susceptibility tests for bacteria that grow aerobically, 10th ed. Approved standard. CLSI, Wayne, Pa.).
(§2) A) In the broth micro-dilution method, the test media were either AM3 Broth (BD Difco Ltd) mixed with phosphate buffered saline (PBS, Amresco LLC, Solon, USA) in 1:4 ratio (E. colt A. baumannii, Enterobacter cloacae, Klebsiella pneumonia and P. aeruginosa), AM3 Broth mixed with PBS in 1:1 ratio (S. aureus) or Malt Extract (ME; 15 g Malt Extract Dico Ltd. in 1000 mL deionized H2O; Aspergillus fumigatus). Prior to MIC-tests, the bacterial cell concentration/fungal spore concentration was adjusted to between 1 and 5×10^5 cells/spores per mL. […] Afterwards, suspensions of pathogen cells in the appropriate medium were dispensed to the wells of microtiter plates and the growth of pathogens were monitored after 16 to 20 h of incubation at 37° C. in the dark. Positive control comprised respective pathogen cells suspended in untreated sterile appropriate media without addition of compounds(s) and negative control comprised the medium only. The MIC was defined as the lowest concentration of each compound with no visible growth of pathogen. All MIC tests were performed in duplicate and/or triplicate and repeated at least twice.

E. cloacae = type: cell-based, Enterobacter cloacae; settings: method A; only lower limit of concentration range shown ("16" means "16-32")
From the text: as §1, §2

E. coli = type: cell-based, Escherichia coli; settings: method A; only lower limit of concentration range shown ("16" means "16-32")
From the text: as §1, §2

K. pneumoniae = type: cell-based, Klebsiella pneumonia; settings: method A; only lower limit of concentration range shown ("16" means "16-32")
From the text: as §1, §2

P. aeruginosa = type: cell-based, Pseudomonas aeruginosa; settings: method A; only lower limit of concentration range shown ("16" means "16-32")
From the text: as §1, §2

S. aureus = type: cell-based, Staphylococcus aureus; settings: method A; only lower limit of concentration range shown ("16" means "16-32")
From the text: as §1, §2

HepG2 = settings: HepG2, determined by a CRO
Protocol: IC50, haemolysis rate and frequency of resistance (FoR, Table 4) was determined using standard protocols by different CROs.

Substance: Table 2 cyclic lipodepsipeptide: R C8H17; DAPA-Leu-DABA-ABA-Thr-DAPA-Phe-OHVal-Asp [U755b]
- MIC A. baumannii LMG1041T (A. baumannii): 2 µg/mL
- MIC E. cloacae LMG2783T (E. cloacae): 2 µg/mL
- MIC E. coli LMG15862 (E. coli): 8 µg/mL
- MIC K. pneumonia LMG20218 (K. pneumoniae): 8 µg/mL
- MIC P. aeruginosa LMG6395 (P. aeruginosa): 4 µg/mL
- MIC S. aureus LMG15975 (S. aureus): 16 µg/mL
- IC50 (HepG2) (HepG2): 34 µg/mL

Substance: Table 2 cyclic lipodepsipeptide: R C9H17; DAPA-Leu-DABA-ABA-Thr-Asn-Phe-Val-Asp [U826]
- MIC A. baumannii LMG1041T (A. baumannii): 8 µg/mL
- MIC E. cloacae LMG2783T (E. cloacae): 16 µg/mL
- MIC E. coli LMG15862 (E. coli): 8 µg/mL
- MIC K. pneumonia LMG20218 (K. pneumoniae): >32 µg/mL
- MIC P. aeruginosa LMG6395 (P. aeruginosa): 16 µg/mL
- MIC S. aureus LMG15975 (S. aureus): 16 µg/mL
- IC50 (HepG2) (HepG2): 23 µg/mL

Substance: Table 2 cyclic lipodepsipeptide: R C9H17; DAPA-Leu-DABA-ABA-Thr-DAPA-Phe-OHVal-Asp [U757]
- MIC A. baumannii LMG1041T (A. baumannii): 4 µg/mL
- MIC E. cloacae LMG2783T (E. cloacae): 8 µg/mL
- MIC E. coli LMG15862 (E. coli): 8 µg/mL
- MIC K. pneumonia LMG20218 (K. pneumoniae): 8 µg/mL
- MIC P. aeruginosa LMG6395 (P. aeruginosa): 8 µg/mL
- MIC S. aureus LMG15975 (S. aureus): 16 µg/mL
- IC50 (HepG2) (HepG2): 28 µg/mL

Substance: Table 2 cyclic lipodepsipeptide: R C9H17; DAPA-Leu-DABA-ABA-Thr-DAPA-Phe-Val-Asp [U771]
- MIC A. baumannii LMG1041T (A. baumannii): 1 µg/mL
- MIC E. cloacae LMG2783T (E. cloacae): 2 µg/mL
- MIC E. coli LMG15862 (E. coli): 1 µg/mL
- MIC K. pneumonia LMG20218 (K. pneumoniae): 2 µg/mL
- MIC P. aeruginosa LMG6395 (P. aeruginosa): 2 µg/mL
- MIC S. aureus LMG15975 (S. aureus): 2 µg/mL
- IC50 (HepG2) (HepG2): 9 µg/mL

Substance: Table 2 cyclic lipodepsipeptide: R C9H17; DAPA-Leu-DABA-ABA-Thr-DAPA-Phe-Val-Asp [U775]
- MIC A. baumannii LMG1041T (A. baumannii): 8 µg/mL
- MIC E. cloacae LMG2783T (E. cloacae): 4 µg/mL
- MIC E. coli LMG15862 (E. coli): 4 µg/mL
- MIC K. pneumonia LMG20218 (K. pneumoniae): 16 µg/mL
- MIC P. aeruginosa LMG6395 (P. aeruginosa): 4 µg/mL
- MIC S. aureus LMG15975 (S. aureus): 16 µg/mL
- IC50 (HepG2) (HepG2): 9 µg/mL

Substance: Table 2 cyclic lipodepsipeptide: R C10H21; Asn-Leu-DABA-ABA-Thr-DAPA-Phe-OHVal-Asp [U810]
- MIC A. baumannii LMG1041T (A. baumannii): 8 µg/mL
- MIC E. cloacae LMG2783T (E. cloacae): 8 µg/mL
- MIC E. coli LMG15862 (E. coli): 8 µg/mL
- MIC K. pneumonia LMG20218 (K. pneumoniae): >32 µg/mL
- MIC P. aeruginosa LMG6395 (P. aeruginosa): >32 µg/mL
- MIC S. aureus LMG15975 (S. aureus): 16 µg/mL
- IC50 (HepG2) (HepG2): 15 µg/mL

Substance: Table 2 cyclic lipodepsipeptide: R C10H21; Asn-Leu-DABA-ABA-Thr-DAPA-Phe-Val-Asp [U842]
- MIC A. baumannii LMG1041T (A. baumannii): 8 µg/mL
- MIC E. cloacae LMG2783T (E. cloacae): >32 µg/mL
- MIC E. coli LMG15862 (E. coli): 16 µg/mL
- MIC K. pneumonia LMG20218 (K. pneumoniae): >32 µg/mL
- MIC P. aeruginosa LMG6395 (P. aeruginosa): 16 µg/mL
- MIC S. aureus LMG15975 (S. aureus): 8 µg/mL
- IC50 (HepG2) (HepG2): 22 µg/mL

Substance: Table 2 cyclic lipodepsipeptide: R C10H21; DAPA-Leu-DABA-ABA-Thr-DAPA-Phe-Val-Asp [U800]
- MIC A. baumannii LMG1041T (A. baumannii): 8 µg/mL
- MIC E. cloacae LMG2783T (E. cloacae): 8 µg/mL
- MIC E. coli LMG15862 (E. coli): 8 µg/mL
- MIC K. pneumonia LMG20218 (K. pneumoniae): >32 µg/mL
- MIC P. aeruginosa LMG6395 (P. aeruginosa): 16 µg/mL
- MIC S. aureus LMG15975 (S. aureus): 16 µg/mL
- IC50 (HepG2) (HepG2): 12 µg/mL
